According to patent publication US20110053916A1 (Vertex Pharmaceuticals Incorporated, priority 2009, published 2011):

Legend:
PknB = molecular target: T1, PknB (Mycobacterium tuberculosis, UniProt P9WI81); assay: biochemical; set-up: species or system M. tuberculosis; settings: 3 nM PknB, 6 uM GarA, 3 μM ATP, 30 min, competitive tight-binding fit, several symbols in a cell = repeat determinations; for Ki: read-out: Ki Values
T1 construct: made in house

[1] = test system: Mycobacterium tuberculosis H37Ra; assay: Mycobacterium tuberculosis growth inhibition assay (microtiter dilution, resazurin reduction); type: cell-based; settings: 7H9 broth, 9 days + 24 h resazurin, lowest concentration inhibiting resazurin reduction by >70%, several symbols in a cell = repeat determinations
How it was run: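 Resazurin-based microtiter dilution MIC: compounds in 7- or 11-step two-fold series with ~1×10^6 cells/mL H37Ra in 7H9/10% ADC, 9 days at 37 °C, then 24 h with dye. MIC is the lowest concentration giving >70% inhibition of resazurin reduction relative to DMSO controls, by 492/595 nm fluorescence.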

T1 sequence (P9WI81 whole entry): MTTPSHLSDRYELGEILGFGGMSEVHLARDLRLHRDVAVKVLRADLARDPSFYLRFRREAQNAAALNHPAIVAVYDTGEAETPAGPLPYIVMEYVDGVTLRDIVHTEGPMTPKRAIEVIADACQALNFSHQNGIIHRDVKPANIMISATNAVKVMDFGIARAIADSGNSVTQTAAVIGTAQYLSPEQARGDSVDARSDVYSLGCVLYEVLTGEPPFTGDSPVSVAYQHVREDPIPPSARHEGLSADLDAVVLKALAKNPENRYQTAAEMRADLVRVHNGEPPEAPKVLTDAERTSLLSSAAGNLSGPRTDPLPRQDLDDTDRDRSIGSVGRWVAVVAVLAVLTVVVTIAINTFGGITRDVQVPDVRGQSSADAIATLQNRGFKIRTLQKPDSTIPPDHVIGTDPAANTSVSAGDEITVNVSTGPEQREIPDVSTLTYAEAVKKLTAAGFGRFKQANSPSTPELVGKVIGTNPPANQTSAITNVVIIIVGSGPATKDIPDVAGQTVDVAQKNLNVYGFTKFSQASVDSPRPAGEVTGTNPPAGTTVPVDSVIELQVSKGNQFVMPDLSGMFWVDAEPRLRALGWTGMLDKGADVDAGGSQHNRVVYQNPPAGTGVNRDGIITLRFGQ

Row | SMILES | Ki Values (PknB) | MIC values [1] | Ki (PknB) [nM]
1 | O=S(=O)(NCCO)c1ccc(Nc2nccc(Nc3cc(C4CC4)n[nH]3)n2)cc1 [Compound 83, 4-[[4-[(5-cyclopropyl-2H-pyrazol-3-yl)amino]pyrimidin-2-yl]amino]-N-(2-hydroxyethyl)benzenesulfonamide] | A**, A* | B+ | –
2 | C#Cc1cnc(-c2ccc([C@@H](O)CC)s2)nc1Nc1cc(C2CC2)[nH]n1 (stereo in doubt) [Compound 199, 1-[5-[4-[(5-cyclopropyl-1H-pyrazol-3-yl)amino]-5-ethynyl-pyrimidin-2-yl]-2-thienyl]propan-1-ol] | A**, A* | B+ | –
3 | CNS(=O)(=O)c1ccc(-c2ncc(F)c(Nc3cc(C4CC4)[nH]n3)n2)s1 [Compound 43, 5-[4-[(5-cyclopropyl-1H-pyrazol-3-yl)amino]-5-fluoro-pyrimidin-2-yl]-N-methyl-thiophene-2-sulfonamide] | – | B++ | 1 to 10
4 | CNS(=O)(=O)c1ccc(-c2ncc(Cl)c(Nc3cc(C4CC4)n[nH]3)n2)cc1 [Compound 117, 4-[5-chloro-4-[(5-cyclopropyl-2H-pyrazol-3-yl)amino]-pyrimidin-2-yl]-N-methyl-benzenesulfonamide] | A*, A | A, C, C | –
5 | [H]/N=C(\N)c1ccc(-c2ncc(Cl)c(Nc3cc(C4CC4)[nH]n3)n2)s1 [Compound 205, 5-(5-chloro-4-(5-cyclopropyl-1H-pyrazol-3-ylamino)pyrimidin-2-yl)thiophene-2-carboximidamide] | A, B** | B, C | –
6 | O=S(=O)(O)c1ccc(-c2ncc(Cl)c(Nc3cc(C4CC4)[nH]n3)n2)s1 [Compound 306, 5-[5-chloro-4-[(5-cyclopropyl-1H-pyrazol-3-yl)amino]-pyrimidin-2-yl]thiophene-2-sulfonic acid] | – | B+ | 10 to 50
7 | CC(C)(C#N)c1ccc(-c2ncc(Cl)c(Nc3cc(C4CC4)[nH]n3)n2)s1 [Compound 238, 2-[5-[5-chloro-4-[(5-cyclopropyl-1H-pyrazol-3-yl)amino]-pyrimidin-2-yl]-2-thienyl]-2-methyl-propanenitrile] | – | B++ | 1 to 10
8 | CN(C)S(=O)(=O)c1ccc(-c2ncc(Cl)c(Nc3cc(C4CC4)[nH]n3)n2)s1 [Compound 74, 5-[5-chloro-4-[(5-cyclopropyl-1H-pyrazol-3-yl)amino]-pyrimidin-2-yl]-N,N-dimethyl-thiophene-2-sulfonamide] | – | A, B++, C | 1 to 10
9 | NS(=O)(=O)c1ccc(-c2nc(Nc3cc(C4CC4)n[nH]3)cc(N3CCCC3)n2)s1 [Compound 284, 5-[4-[(5-cyclopropyl-2H-pyrazol-3-yl)amino]-6-pyrrolidin-1-yl-pyrimidin-2-yl]thiophene-2-sulfonamide] | – | B++ | 100 to 500
10 | CC(C)(C)NS(=O)(=O)c1ccc(-c2nccc(Nc3cc(C4CC4)[nH]n3)n2)cn1 [Compound 300, 5-[4-[(5-cyclopropyl-1H-pyrazol-3-yl)amino]pyrimidin-2-yl]-N-tert-butyl-pyridine-2-sulfonamide] | – | B+ | 50 to 100
11 | COc1cnc(N2CCN(C)CC2)nc1Nc1cc(C2CC2)[nH]n1 [Compound 67, N-(5-cyclopropyl-1H-pyrazol-3-yl)-5-methoxy-2-(4-methylpiperazin-1-yl)-pyrimidin-4-amine] | – | A+ | 10 to 50
12 | Oc1cccc(-c2ncc(Cl)c(Nc3cc(C4CC4)[nH]n3)n2)c1 [Compound 104, 3-[5-chloro-4-[(5-cyclopropyl-1H-pyrazol-3-yl)amino]-pyrimidin-2-yl]phenol] | A*, A | B++, C | –
13 | Cc1cc(Nc2nc(-c3ccc(S(N)(=O)=O)s3)ncc2Cl)n[nH]1 [Compound 224, 5-[5-chloro-4-[(5-methyl-1H-pyrazol-3-yl)amino]-pyrimidin-2-yl]thiophene-2-sulfonamide] | – | B++ | 1 to 10
14 | C#Cc1cnc(-c2ccc(C)c(C(N)=O)c2)nc1Nc1cc(C2CC2)[nH]n1 [Compound 93, 5-(4-(5-Cyclopropyl-1H-pyrazol-3-ylamino)-5-ethynylpyrimidin-2-yl)-2-methyl benzamide] | – | B, C | 10 to 50
15 | CNS(=O)(=O)c1ccc(-c2ncc(C)c(Nc3cc(C4CC4)[nH]n3)n2)s1 [Compound 33, 5-[4-[(5-cyclopropyl-1H-pyrazol-3-yl)amino]-5-methyl-pyrimidin-2-yl]-N-methyl-thiophene-2-sulfonamide] | – | B+ | 10 to 50
16 | NS(=O)(=O)c1cccc(-c2ncc(CO)c(Nc3cc(C4CC4)n[nH]3)n2)c1 [Compound 124, 3-(4-(5-cyclopropyl-1H-pyrazol-3-ylamino)-5-(hydroxymethyl)pyrimidin-2-yl)benzenesulfonamide] | – | A, B++ | 50 to 100

Row | SMILES | Ki Values (PknB) | MIC values [1] | Ki (PknB) [nM]
17 | O=S(=O)(NC1CCOCC1)c1ccc(-c2ncc(Cl)c(Nc3cc(C4CC4)[nH]n3)n2)s1 [Compound 148, 5-[5-chloro-4-[(5-cyclopropyl-1H-pyrazol-3-yl)amino]-pyrimidin-2-yl]-N-tetrahydropyran-4-yl-thiophene-2-sulfonamide] | A, B** | B, C | –
18 | CC(C)(C)NS(=O)(=O)c1ccc(-c2ncc(Br)c(Nc3cc(C4CC4)[nH]n3)n2)s1 [Compound 170, 5-[5-bromo-4-[(5-cyclopropyl-1H-pyrazol-3-yl)amino]-pyrimidin-2-yl]-N-tert-butyl-thiophene-2-sulfonamide] | A*, A | B+ | –
19 | O=[N+]([O-])c1ccc(-c2ncc(Cl)c(Nc3cc(C4CC4)[nH]n3)n2)o1 [Compound 222, 5-chloro-N-(5-cyclopropyl-1H-pyrazol-3-yl)-2-(5-nitrofuran-2-yl)pyrimidin-4-amine] | – | A+, A | 1 to 10
20 | OC1/C=C\c2c(n[nH]c2C2CC2)Nc2nc(ncc2Cl)-c2ccccc21 (stereo not shown) [Compound 232, chloro-cyclopropyl-BLAHol] | – | B, C | > 4000
21 | NS(=O)(=O)c1ccc(-c2ncc(NC=O)c(Nc3cc(C4CC4)[nH]n3)n2)s1 [Compound 252, N-[4-[(5-cyclopropyl-1H-pyrazol-3-yl)amino]-2-(5-sulfamoyl-2-thienyl)-pyrimidin-5-yl]formamide] | – | B+ | 10 to 50
22 | CC(C)c1cc(Nc2nc(-c3ccc(S(N)(=O)=O)s3)ncc2Cl)n[nH]1 [Compound 225, 5-[5-chloro-4-[(5-isopropyl-1H-pyrazol-3-yl)amino]-pyrimidin-2-yl]thiophene-2-sulfonamide] | – | B++ | 1 to 10
23 | NS(=O)(=O)c1ccc(-c2nccc(Nc3cc(C4CC4)[nH]n3)n2)cn1 [Compound 301, 5-[4-[(5-cyclopropyl-1H-pyrazol-3-yl)amino]pyrimidin-2-yl]pyridine-2-sulfonamide] | – | B+ | 50 to 100
24 | NS(=O)(=O)c1ccc(-c2ncc(CO)c(Nc3cc(C4CC4)n[nH]3)n2)s1 [Compound 171, 5-(4-(5-cyclopropyl-1H-pyrazol-3-ylamino)-5-(hydroxymethyl)pyrimidin-2-yl)thiophene-2-sulfonamide] | A, B**, B** | B++ | –
25 | C#Cc1cnc(-c2ccc(Cl)c(C(N)=O)c2)nc1Nc1cc(C2CC2)n[nH]1 [Compound 128, 2-chloro-5-(4-(3-cyclopropyl-1H-pyrazol-5-ylamino)-5-ethynylpyrimidin-2-yl)benzamide] | – | B+, C | 10 to 50
26 | C#Cc1cnc(-c2ccc([C@H](C)O)s2)nc1Nc1cc(C2CC2)n[nH]1 [Compound 198, (S)-1-(5-(4-(3-cyclopropyl-1H-pyrazol-5-ylamino)-5-ethynylpyrimidin-2-yl)thiophen-2-yl)ethanol] | – | A, A, A, B++ | 1 to 10
27 | C=CCCC(=O)c1ncc(Cl)c(Nc2cc(C3CC3)[nH]n2)n1 [Compound 256, 1-[5-chloro-4-[(5-cyclopropyl-1H-pyrazol-3-yl)amino]-pyrimidin-2-yl]pent-4-en-1-one] | – | B+ | 500 to 1000
28 | CC(O)c1ccc(-c2ncc(F)c(Nc3cc(C4CC4)[nH]n3)n2)s1 (stereo in doubt) [Compound 144, (S)-1-(5-(4-(5-cyclopropyl-1H-pyrazol-3-ylamino)-5-fluoropyrimidin-2-yl)thiophen-2yl)ethanol] | – | B++ | 10 to 50
29 | C=C(Cl)c1cnc(-c2ccccc2)nc1Nc1cc(C2CC2)[nH]n1 [Compound 21, 5-(1-chlorovinyl)-N-(5-cyclopropyl-1H-pyrazol-3-yl)-2-phenyl-pyrimidin-4-amine] | – | B+, B, B | 500 to 1000
30 | C#Cc1cnc(-c2ccc(S(=O)(=O)NC(C)=O)s2)nc1Nc1cc(C2CC2)[nH]n1 [Compound 192, N-(5-(4-(5-cyclopropyl-1H-pyrazol-3-ylamino)-5-ethynylpyrimidin-2-yl)thiophen-2-ylsulfonyl)acetamide] | – | B, C | 100 to 500
31 | Oc1ccc(-c2ncc(Cl)c(Nc3cc(C4CC4)[nH]n3)n2)cc1 [Compound 126, 4-[5-chloro-4-[(5-cyclopropyl-1H-pyrazol-3-yl)amino]-pyrimidin-2-yl]phenol] | – | B++, B+ | 10 to 50
32 | Nc1cc(Nc2cc(C3CC3)n[nH]2)nc(-c2ccc(S(N)(=O)=O)s2)n1 [Compound 294, 5-[4-amino-6-[(5-cyclopropyl-2H-pyrazol-3-yl)amino]-pyrimidin-2-yl]thiophene-2-sulfonamide] | – | B+ | 2000 to 4000
